Assay results reported in ChEMBL document CHEMBL3244168, “Synthesis and antitumor activity of preactivated isophosphamide analogues bearing modified alkylating functionalities” (J Med Chem, 1978).
In brackets after ≈: the same amount, converted by molar mass. Activity calls are given as the source filed them. The calls are words filed in the database; no cut-off is given here.

Columns and labels:
L1210 [1] = experiment: Cytotoxicity against mouse L1210 cells assessed as growth inhibition after 72 hrs; type: functional; conditions: L1210, 72 h, read-out: ED50 (the source's name)
L1210 [2] = experiment: Antileukemic activity against mouse L1210 cells allografted in ip dosed BDF1 mouse administered 24 hrs; type: functional
L1210 [3] = experiment: Antileukemic activity against mouse L1210 cells allografted in ip dosed BDF1 mouse assessed as maximum tolerated dose for survival over 30 days administered 24 hrs; type: functional
L1210 [4] = experiment: Ratio of ILSmax to ILS30 for antileukemic activity against mouse L1210 cells allografted in ip dosed BDF1 mouse; type: functional
Mus musculus [5] = experiment: Toxicity in BDF1 mouse allografted with mouse L1210 cells assessed as mortality at 80 mg/kg, ip administered 24 hrs measured within 30 days; type: organism-based; parameters: dose 80 mg/kg, route intraperitoneal; conditions: in vivo
L1210 [6] = experiment: Antileukemic activity against mouse L1210 cells allografted in BDF1 mouse assessed as mean survival time at 70 mg/kg, ip administered 24 hrs (Rvb 4.6 +/- 0.16 days); type: functional; conditions: route intraperitoneal
L1210 [7] = experiment: Antileukemic activity against mouse L1210 cells allografted in BDF1 mouse assessed as mean survival time at 530 mg/kg, ip administered 24 hrs (Rvb 4.6 +/- 0.16 days); type: functional; conditions: route intraperitoneal
L1210 [8] = experiment: Antileukemic activity against mouse L1210 cells allografted in BDF1 mouse assessed as increase in life span at 530 mg/kg, ip administered 24 hrs relative to control; type: functional; conditions: route intraperitoneal
L1210 [9] = experiment: Antileukemic activity against mouse L1210 cells allografted in iv dosed BDF1 mouse assessed as maximum tolerated dose for survival over 60 days administered 24 hrs; type: functional
L1210 [10] = experiment: Antileukemic activity against mouse L1210 cells allografted in BDF1 mouse assessed as increase in life span at 330 mg/kg, ip administered 24 hrs relative to control; type: functional; conditions: route intraperitoneal
L1210 [11] = experiment: Antileukemic activity against mouse L1210 cells allografted in BDF1 mouse assessed as mean survival time at 330 mg/kg, ip administered 24 hrs (Rvb 4.6 +/- 0.16 days); type: functional; conditions: route intraperitoneal
L1210 [12] = experiment: Antileukemic activity against mouse L1210 cells allografted in BDF1 mouse assessed as increase in life span at 130 mg/kg, ip administered 24 hrs relative to control; type: functional; conditions: route intraperitoneal
L1210 [13] = experiment: Ratio of Cmax to Cmin for antileukemic activity against mouse L1210 cells allografted in iv dosed BDF1 mouse assessed as survival over 60 days; type: functional
L1210 [14] = experiment: Antileukemic activity against mouse L1210 cells allografted in po dosed BDF1 mouse assessed as maximum tolerated dose for survival over 60 days administered 24 hrs; type: functional
L1210 [15] = experiment: Antileukemic activity against mouse L1210 cells allografted in BDF1 mouse assessed as increase in life span at 70 mg/kg, ip administered 24 hrs relative to control; type: functional; conditions: route intraperitoneal
L1210 [16] = experiment: Antileukemic activity against mouse L1210 cells allografted in po dosed BDF1 mouse assessed as survival over 60 days administered 24 hrs; type: functional; conditions: read-out: MED
L1210 [17] = experiment: Ratio of Cmax to Cmin for antileukemic activity against mouse L1210 cells allografted in po dosed BDF1 mouse assessed as survival over 60 days; type: functional
L1210 [18] = experiment: Antileukemic activity against mouse L1210 cells allografted in iv dosed BDF1 mouse assessed as survival over 60 days administered 24 hrs; type: functional; conditions: read-out: MED
L1210 [19] = experiment: Antileukemic activity against mouse L1210 cells allografted in BDF1 mouse assessed as mean survival time at 130 mg/kg, ip administered 24 hrs (Rvb 4.6 +/- 0.16 days); type: functional; conditions: route intraperitoneal
L1210 [20] = experiment: Antileukemic activity against mouse L1210 cells allografted in ip dosed BDF1 mouse assessed as survival over 60 days administered 24 hrs; type: functional; conditions: read-out: MED
L1210 [21] = experiment: Antileukemic activity against mouse L1210 cells allografted in BDF1 mouse assessed as increase in life span at 100 mg/kg, ip administered 24 hrs relative to control; type: functional; conditions: route intraperitoneal
Mus musculus [22] = experiment: Acute toxicity in ip dosed BDF1 mouse; type: organism-based; conditions: in vivo
Rattus norvegicus [23] = experiment: Acute toxicity in po dosed Wistar rat; type: organism-based; conditions: in vivo
L1210 [24] = experiment: Antileukemic activity against mouse L1210 cells allografted in BDF1 mouse assessed as mean survival time at 100 mg/kg, ip administered 24 hrs (Rvb 4.6 +/- 0.16 days); type: functional; conditions: route intraperitoneal
L1210 [25] = experiment: Antileukemic activity against mouse L1210 cells allografted in BDF1 mouse assessed as mean survival time at 50 mg/kg, ip administered 24 hrs (Rvb 4.6 +/- 0.16 days); type: functional; conditions: route intraperitoneal
Rattus norvegicus [26] = experiment: Acute toxicity in ip dosed Wistar rat; type: organism-based; conditions: in vivo
L1210 [27] = experiment: Antileukemic activity against mouse L1210 cells allografted in BDF1 mouse assessed as increase in survivor over 30 days at 100 mg/kg, ip administered 24 hrs; type: functional, organism-based; parameters: dose 100 mg/kg
L1210 [28] = experiment: Antileukemic activity against mouse L1210 cells allografted in BDF1 mouse assessed as increase in life span at 10 mg/kg, ip administered 24 hrs relative to control; type: functional; conditions: route intraperitoneal
L1210 [29] = experiment: Antileukemic activity against mouse L1210 cells allografted in BDF1 mouse assessed as mean survival time at 10 mg/kg, ip administered 24 hrs (Rvb 4.6 +/- 0.16 days); type: functional; conditions: route intraperitoneal
L1210 [30] = experiment: Antileukemic activity against mouse L1210 cells allografted in BDF1 mouse assessed as increase in life span at 50 mg/kg, ip administered 24 hrs relative to control; type: functional; conditions: route intraperitoneal
Mus musculus [31] = experiment: Acute toxicity in iv dosed BDF1 mouse; type: organism-based; conditions: in vivo
Rattus norvegicus [32] = experiment: Acute toxicity in iv dosed Wistar rat; type: organism-based; conditions: in vivo
L1210 [33] = experiment: Antileukemic activity against mouse L1210 cells allografted in BDF1 mouse assessed as mean survival time at 2 mg/kg, ip administered 24 hrs (Rvb 4.6 +/- 0.16 days); type: functional; conditions: route intraperitoneal
L1210 [34] = experiment: Antileukemic activity against mouse L1210 cells allografted in BDF1 mouse assessed as increase in life span at 2 mg/kg, ip administered 24 hrs relative to control; type: functional; conditions: route intraperitoneal
L1210 [35] = experiment: Antileukemic activity against mouse L1210 cells allografted in ip dosed BDF1 mouse assessed as maximum tolerated dose for survival over 60 days administered 24 hrs; type: functional
L1210 [36] = experiment: Ratio of Cmax to Cmin for antileukemic activity against mouse L1210 cells allografted in ip dosed BDF1 mouse assessed as survival over 60 days; type: functional
Mus musculus [37] = experiment: Acute toxicity in po dosed BDF1 mouse; type: organism-based; conditions: in vivo
L1210 [38] = experiment: Antileukemic activity against mouse L1210 cells allografted in BDF1 mouse assessed as increase in life span at 200 mg/kg, ip administered 24 hrs relative to control; type: functional; conditions: route intraperitoneal
L1210 [39] = experiment: Antileukemic activity against mouse L1210 cells allografted in BDF1 mouse assessed as mean survival time at 200 mg/kg, ip administered 24 hrs (Rvb 4.6 +/- 0.16 days); type: functional; conditions: route intraperitoneal
L1210 [40] = experiment: Antileukemic activity against mouse L1210 cells allografted in BDF1 mouse assessed as increase in life span at 400 mg/kg, ip administered 24 hrs relative to control

Row | SMILES | EC50 (L1210 [1]) [µg/mL] | ILS30 (L1210 [2]) [mg/kg] | ILSmax (L1210 [3]) [mg/kg] | Ratio (L1210 [4]) | MTD (L1210 [9]) [mg/kg] | Ratio (L1210 [13]) | MTD (L1210 [14]) [mg/kg] | minimal effective dose (L1210 [16]) [mg/kg] | Ratio (L1210 [17]) | minimal effective dose (L1210 [18]) [mg/kg] | further results
1 | CCS(=O)(=O)OCCN(C)P1(=O)OCCC(OO)N1CCCl (centres undefined) | 0.8 (≈ 2.1 µM) | 10 | 80 | 8 | – | – | – | – | – | – | –
2 | CS(=O)(=O)OCCN1C(OO)CCOP1(=O)N(CCCl)CCCl (centres undefined) | 0.06 (≈ 0.144 µM) | 10 | 80 | 8 | – | – | – | – | – | – | Activity (Mus musculus [5]): Toxic
3 | O=P1(NCCBr)OCCC(OO)N1CCBr (centres undefined) | 2 (≈ 5.24 µM) | 6 | 70 | 12 | – | – | – | – | – | – | –
4 | O=P1(NCCCl)OCCCN1CCCl (centres undefined) [IFOSFAMIDE] | – | – | – | – | 320 | 1.1 | 250 | 250 | 1 | 280 | MST (L1210 [6]): 8.8 days; MST (L1210 [7]): >16.5 days; ILS at 530 mg/kg (L1210 [8]): > 251%; ILS at 330 mg/kg (L1210 [10]): > 427%; MST (L1210 [11]): >24.3 days; ILS at 130 mg/kg (L1210 [12]): 158%; ILS at 70 mg/kg (L1210 [15]): 90%; MST (L1210 [19]): 11.9 days
5 | CN(CCCl)P1(=O)OCCC(OO)N1CCOS(C)(=O)=O (centres undefined) | 0.8 (≈ 2.18 µM) | 2 | 80 | 40 | 100 | 6.6 | 200 | 50 | 4 | 15 | minimal effective dose (L1210 [20]): 10 mg/kg; ILS at 100 mg/kg (L1210 [21]): > 242%; LD10 (Mus musculus [22]): 134 mg/kg; LD10 (Rattus norvegicus [23]): 238 mg/kg; MST (L1210 [24]): >15.8 days; MST (L1210 [25]): >26.1 days; LD10 (Rattus norvegicus [26]): 41 mg/kg; Activity (L1210 [27]): Active; ILS at 10 mg/kg (L1210 [28]): 147%; MST (L1210 [29]): 11.4 days; ILS at 50 mg/kg (L1210 [30]): > 468%; LD10 (Mus musculus [31]): 120 mg/kg; LD10 (Rattus norvegicus [32]): 66 mg/kg; MST (L1210 [33]): 6.6 days; ILS at 2 mg/kg (L1210 [34]): 44%; MTD (L1210 [35]): 100 mg/kg; Ratio (L1210 [36]): 10; LD10 (Mus musculus [37]): 284 mg/kg
6 | O=P1(N(CCCl)CCCl)NCCCO1 (centres undefined) [CYCLOPHOSPHAMIDE ANHYDROUS] | – | – | – | – | 200 | 1 | 200 | 200 | 1 | 200 | minimal effective dose (L1210 [20]): 100 mg/kg; ILS at 100 mg/kg (L1210 [21]): 169%; ILS at 200 mg/kg (L1210 [38]): > 310%; MST (L1210 [24]): 12.4 days; MST (L1210 [39]): >18.9 days; MST (L1210 [25]): 7.8 days; ILS at 50 mg/kg (L1210 [30]): 68%; ILS at 400 mg/kg (L1210 [40]): > 283%; MTD (L1210 [35]): 200 mg/kg; Ratio (L1210 [36]): 2
7 | CS(=O)(=O)OCCN1C(OO)CCOP1(=O)NCCCl (centres undefined) | 0.8 (≈ 2.27 µM) | 2 | 75 | 38 | – | – | – | – | – | – | –
8 | CN(CCBr)P1(=O)OCCC(OO)N1CCCl (centres undefined) | 0.3 (≈ 0.853 µM) | 6 | 70 | 12 | – | – | – | – | – | – | –
